Molecular target: BTK enzyme (Homo sapiens, UniProt Q06187)
Assay: Z'-LYTE kinase assay, BTK enzyme activity inhibition (ThermoFisher SelectScreen)
Type: biochemical
Conditions: 60 minutes reaction at room temperature, compound 1,000 nM to 0.32 nM
Description: To do this, the SelectScreen profiling service was requested to the ThermoFisher company to proceed the Z′-LYTE kinase assay. The simple test method can be summarized as follows.
The compounds prepared in Examples above were each dissolved in DMSO to prepare a 10 mM solution, which was then delivered to the ThermoFisher Scientific company. According to the protocol provided by the ThermoFisher Scientific company, the solution of each compound was diluted in 100% DMSO to a have a concentration of 1,000 nM to 0.32 nM (dilution factor of 1/5). Next, the BTK enzyme was diluted in a kinase buffer (50 mM HEPES (PH 7.5), 10 mM MgCl2, 1 mM EGTA, 0.01% BRIJ-35) to a concentration of up to 10 ng/assay. The test was performed in a low volume 384-well plate (low volume NBS, black 384-well plate). First, 100 nL of the diluted compound solution was added to a sample, and then 2.4 μL of buffer, 5 μL of mixed solution of peptide substrate and kinase at twice (2×) the concentration listed in the protocol, and 2.5 μL of 140 μm ATP solution were added thereto, followed by stirring for 30 seconds. Then, it was allowed for a reaction at room temperature for 60 minutes. Afterwards, 5 μL of a color developing solution was added thereto and stirred for 30 seconds, and fluorescence of the peptide substrate was reacted for 60 minutes. After completion of the reaction, each fluorescence value (400 nm excitation filter, 445/520 nm emission filter) was measured by using a fluorescence plate reader.

Chain of BTK enzyme (Q06187 whole entry): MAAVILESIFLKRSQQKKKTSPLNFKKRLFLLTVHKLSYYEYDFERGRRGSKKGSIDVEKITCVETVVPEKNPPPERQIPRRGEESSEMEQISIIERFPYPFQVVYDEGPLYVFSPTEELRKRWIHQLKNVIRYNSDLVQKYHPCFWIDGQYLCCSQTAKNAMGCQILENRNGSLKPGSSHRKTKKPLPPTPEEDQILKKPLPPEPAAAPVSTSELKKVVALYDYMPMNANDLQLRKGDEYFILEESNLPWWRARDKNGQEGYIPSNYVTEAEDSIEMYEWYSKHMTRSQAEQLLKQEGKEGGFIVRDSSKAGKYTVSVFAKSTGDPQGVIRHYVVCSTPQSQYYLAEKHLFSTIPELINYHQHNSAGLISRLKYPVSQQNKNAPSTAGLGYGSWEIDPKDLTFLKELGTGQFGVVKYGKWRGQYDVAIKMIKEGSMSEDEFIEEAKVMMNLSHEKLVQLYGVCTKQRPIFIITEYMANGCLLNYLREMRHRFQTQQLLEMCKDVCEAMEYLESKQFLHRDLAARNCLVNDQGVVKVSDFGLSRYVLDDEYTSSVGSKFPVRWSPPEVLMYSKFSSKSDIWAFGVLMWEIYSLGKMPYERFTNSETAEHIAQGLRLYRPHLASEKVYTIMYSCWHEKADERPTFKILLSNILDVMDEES

Row | Compound | IC50 [nM]
1 | C=CC(=O)N(C)CC#Cc1c(N)ncnc1-c1cc(F)cc(-n2ccc3cc(C4CC4)cc(F)c3c2=O)c1 [Example 5, N-(3-(4-amino-6-(3-(6-cyclo-8-fluoro-1-oxoisoquinolin-2(1H)-yl)-5-fluorophenyl)pyrimidin-5-yl)prop-2-yn-1-yl)-N-methylacrylamide] | 6
2 | C=CC(=O)N(C)CC#Cc1c(N)ncnc1-c1cc(F)cc(-n2ccc3cc(C4CC4)cc(F)c3c2=O)c1F [Example 7, N-(3-(4-amino-6-(3-(6-cyclopropyl-8-fluoro-1-oxoisoquinolin-2(1H)-yl)-2,5-difluorophenyl)pyrimidin-5-yl)prop-2-yn-1-yl)-N-methylacrylamide] | 20
3 | C=CC(=O)NCC#Cc1c(N)ncnc1-c1cc(F)cc(-n2ccc3cc(C4CC4)cc(F)c3c2=O)c1C [Example 9, N-(3-(4-amino-6-(3-(6-cyclopropyl-8-fluoro-1-oxoisoquinolin-2(1H)-yl)-5-fluoro-2-methylphenyl)pyrimidin-5-yl)prop-2-yn-1-yl)acrylamide] | 34
4 | C=CC(=O)N(C)CC#Cc1c(N)ncnc1-c1cc(F)cc(-n2ncc3cc(C4CC4)ccc3c2=O)c1C [Example 11, N-(3-(4-amino-6-(3-(6-cyclopropyl-1-oxophthalazin-2(1H)-yl)-5-fluoro-2-methylphenyl)pyrimidin-5-yl)prop-2-yn-1-yl)-N-methylacrylamide] | 10
5 | C=CC(=O)N(C)CC#Cc1c(N)ncnc1-c1cc(F)cc(-n2ncc3cc(C(C)(C)C)cc(F)c3c2=O)c1C [Example 13] | 44
6 | C=CC(=O)N(C)CC#Cc1c(N)ncnc1-c1cc(F)cc(-n2ncc3cc(C(C)(C)C)ccc3c2=O)c1 [Example 14] | 24
7 | C=CC(=O)N(C)CC#Cc1c(N)ncnc1-c1cc(F)cc(-n2cnc3cc(C4CC4)cc(F)c3c2=O)c1 [Example 15, N-(3-(4-amino-6-(3-(7-cyclopropyl-5-fluoro-4-oxoquinazolin-3(4H)-yl)-5-fluorophenyl)pyrimidin-5-yl)prop-2-yn-1-yl)-N-methylacrylamide] | 34
8 | C=CC(=O)N1CCC[C@@H]1C#Cc1c(N)ncnc1-c1cc(F)cc(-n2ccc3cc(C4CC4)cc(F)c3c2=O)c1C [Example 16, (R)-2-(3-(5-((1-acryloylpyrrolidin-2-yl)ethynyl)-6-aminopyrimidin-4-yl)-5-fluoro-2-methylphenyl)-6-cyclopropyl-8-fluoroisoquinolin-1-(2H)-one] | 29
9 | C=CC(=O)N1CCC[C@H]1C#Cc1c(N)ncnc1-c1cc(F)cc(-n2ccc3cc(C(C)C)cc(F)c3c2=O)c1C [Example 18, (S)-2-(3-(5-((1-acryloylpyrrolidin-2-yl)ethynyl)-6-aminopyrimidin-4-yl)-6-fluoro-2-methylphenyl)-8-fluoro-6-isoquinolin-1-(2H)-one] | 9.7
10 | C=C(F)C(=O)N1CCC[C@H]1C#Cc1c(N)ncnc1-c1cc(F)cc(-n2ccc3cc(C4CC4)cc(F)c3c2=O)c1C [Example 19, (S)-2-(3-(6-amino-5-((1-(2-fluoroacryloyl)pyrrolidin-2-yl)ethynyl)pyrimidin-4-yl)-5-fluoro-2-methylphenyl)-6-cyclopropyl-8-fluoroisoquinolin-1(2H)-one] | 201
11 | C=C(Cl)C(=O)N1CCC[C@H]1C#Cc1c(N)ncnc1-c1cc(F)cc(-n2ccc3cc(C4CC4)cc(F)c3c2=O)c1C [Example 20, (S)-2-(3-(6-amino-5-((1-(2-chloroacryloyl)pyrrolidin-2-yl)ethynyl)pyrimidin-4-yl)-5-fluoro-2-methylphenyl)-6-cyclopropyl-8-fluoroisoquinolin-1(2H)-one] | 16
12 | C=CC(=O)N1CCCC[C@H]1C#Cc1c(N)ncnc1-c1cc(F)cc(-n2ccc3cc(C4CC4)cc(F)c3c2=O)c1C [Example 23] | 8.7

Now those with a lower IC50, led by results:

Row | IC50 [nM] | Compound
13 | 1.7 | C=CC(=O)N(C)CC#Cc1c(N)ncnc1-c1cc(F)cc(NC(=O)c2ccc(C(C)C)cc2F)c1C [Example 1]
14 | 1.5 | C=CC(=O)N(C)CC#Cc1c(N)ncnc1-c1cc(F)cc(NC(=O)c2ccc(C3CC3)cc2F)c1C [Example 2]
15 | 3.8 | C=CC(=O)N(C)CC#Cc1c(N)ncnc1-c1cc(F)cc(N2CCc3cc(C4CC4)cc(F)c3C2=O)c1 [Example 3, N-(3-(4-amino-6-(3-(6-cyclopropyl-8-fluoro-1-oxo-3,4-dihydroisoquinolin-2(1H)-yl)-5-fluorophenyl)pyrimidin-5-yl)prop-2-yn-1-yl)-N-methylacrylamide]
16 | 5.3 | C=CC(=O)N(C)CC#Cc1c(N)ncnc1-c1cc(F)cc(N2CCc3cc(C4CC4)cc(F)c3C2=O)c1C [Example 4, N-(3-(4-amino-6-(3-(6-cyclopropyl-8-fluoro-1-oxo-3,4-dihydroisoquinolin-2(1H)-yl)-5-fluoro-2-methylphenyl)pyrimidin-5-yl)prop-2-yn-1-yl)-N-methylacrylamide]
17 | 3 | C=CC(=O)N(C)CC#Cc1c(N)ncnc1-c1cc(F)cc(-n2ccc3cc(C4CC4)cc(F)c3c2=O)c1C [Example 6, N-(3-(4-amino-6-(3-(6-cyclopropyl-8-fluoro-1-oxoisoquinolin-2(1H)-yl)-5-fluoro-2-methylphenyl)pyrimidin-5-yl)prop-2-yn-1-yl)-N-methylacrylamide]
18 | 3.4 | C=CC(=O)N(C)CC#Cc1c(N)ncnc1-c1cc(C)cc(-n2ccc3cc(C4CC4)cc(F)c3c2=O)c1C [Example 8, N-(3-(4-amino-6-(3-(6-cyclopropyl-8-fluoro-1-oxoisoquinolin-2(1H)-yl)-2,5-dimethylphenyl)pyrimidin-5-yl)prop-2-yn-1-yl)-N-methylacrylamide]
19 | 2.3 | C=CC(=O)N(C)CC#Cc1c(N)ncnc1-c1cc(F)cc(-n2ncc3cc(C(C)(C)C)cc(F)c3c2=O)c1 [Example 10, N-(3-(4-amino-6-(3-(6-(tert-butyl)-8-fluoro-1-oxophthalazin-2-(1H)-yl)-5-fluorophenyl)pyrimidin-5-yl)prop-2-yn-1-yl)-N-methylacrylamide]
20 | 4.9 | C=CC(=O)N(C)CC#Cc1c(N)ncnc1-c1cc(F)cc(-n2ncc3cc(C4CC4)cc(F)c3c2=O)c1C [Example 12, N-(3-(4-amino-6-(3-(6-cyclopropyl-8-fluoro-1-oxophthalazin-2(1H)-yl)-5-fluoro-2-methylphenyl)pyrimidin-6-yl)prop-2-yn-1-yl)-N-methylacrylamide]
21 | 4.1 | C=CC(=O)N1CCC[C@H]1C#Cc1c(N)ncnc1-c1cc(F)cc(-n2ccc3cc(C4CC4)cc(F)c3c2=O)c1C [Example 17, (S)-2-(3-(5-((1-acryloylpyrrolidin-2-yl)ethynyl)-6-aminopyrimidin-4-yl)-6-fluoro-2-methylphenyl)-6-cyclopropyl-8-fluoroisoquinolin-1-(2H)-one]
22 | 5.7 | C=CC(=O)N1CCCCC1C#Cc1c(N)ncnc1-c1cc(F)cc(-n2ccc3cc(C4CC4)cc(F)c3c2=O)c1C (stereo not shown) [Example 22, 2-(3-(5-((1-acryloylpiperidin-2-yl)ethynyl)-6-aminopyrimidin-4-yl)-5-fluoro-2-methylphenyl)-6-cyclopropyl-8-isoquinolin-1(2H)-one]

From US20260103453A1, “NOVEL PYRIMIDINE DERIVATIVE AS BRUTON'S TYROSINE KINASE INHIBITOR” (HANMI PHARM. CO., LTD., priority 2022, published 2026)
